The record followed here is US20030008847A1, “Treatment of diabetes and related pathologies” (Medicure, Inc., priority 1999, published 2003).

Test [1] concerns rats induced with Type I diabetes. The experiment in a line: Type I diabetes in rats induced with streptozotocin; glucose and insulin levels. It counts as in vivo, Male Sprague-Dawley rats. Particulars: compared to diabetic group, Insulin 1 unit and 3 unit, P-5-P 25 mg/kg daily; for plasma glucose levels: FIG. 1; for plasma insulin levels: FIG. 2. As for the experimental part: Male Sprague-Dawley (Charles River Laboratories, Montreal, Canada) rats weighing approximately 200 g are randomly separated into control and experimental groups. All experimental animals are given an intravenous injection of 0.1 M citrate buffered streptozotocin (pH 4.5) at a dosage of 65 mg/kg of body weight to induce diabetes mellitus. All control animals receive an intravenous injection of 0.1 M citrate buffer (pH 4.5) alone. One experimental group of rats also receives daily doses of pyridoxal-5′-phosphate (25 mg/kg body weight) (Aldrich Canada Ltd., Ontario, Canada). A second experimental group receives daily subcutanteous injections of Humulin® N (3 units per day) (insulin isophene, human biosynthetic; Eli Lilly and Co., Indianapolis, Ind.). A third experimental group receives both daily subcutaneous injections of Humulin® N (3 units per day) and a daily dose of pyridoxal-5′-phosphate (25 mg/kg body weight). […] […] All animals are fed rat chow and water ad libitum. Plasma glucose levels were done using the Infinity Glucose Reagent® (Sigma Diagnostics, St. Louis, Mo.).

Test [2] has as its system rats induced with Type II diabetes. The experiment in a line: Type II diabetes in rats induced by sucrose feeding; plasma glucose, plasma insulin, systolic blood pressure. Particulars: P-5-P 25 mg/kg orally/day; for plasma glucose levels: FIG. 3; for plasma glucose levels / plasma insulin levels: compared to diabetic group, tolbutamide 40 and 20 mg/kg, 16 weeks; for plasma insulin levels: FIG. 4. It counts as in vivo, Male Sprague-Dawley rats. As to the method: To determine the effect of a compound suitable for use in methods of the invention on glucose and insulin levels, as well as increases in systolic blood pressure, rats having type II diabetes are administered pyridoxal-5'-phosphate, either alone or in combination with sucrose and/or tolbutamide, and their systolic blood pressure, urine and blood glucose and insulin levels are determined. […] et al: Isr J Med Sci; 33:153-159. […] et al: Isr J Med Sci; 33:153-159, a high sucrose or fructose diet for a prolonged period is one technique used to induce Type II diabetes, specifically hypertension associated with hyperglycemia and hyperinsulinemia in animals. Male Sprague-Dawley (Charles River Laboratories, Montreal, Canada) rats weighing approximately 200 g are randomly separated into the following groups with each group having 5 amimals: a) The control group that was fed a normal diet and provided with drinking water b) The sucrose group that was fed 35% sucrose (35 gm sucrose/100 ml of drinking water/day) with an average intake of 150 ml/rat/day c) The sucrose+[…] group that was fed sucrose as stated in b above and 25 mg/kg orally/day of […] g) The sucrose+tolbutamide group that was fed sucrose as stated in b above and 20 mg/kg orally/day of tolbutamide. Total duration of the study was 16 weeks. Plasma insulin levels were measured using Rat Insulin RIA Kit (Linco Research Inc., St. Charles, Mo.). Plasma glucose levels were done using the Infinity Glucose Reagent® (Sigma Diagnostics, St. Louis, Mo.).

Take `Cc1ncc(COP(=O)(O)O)c(C=O)c1O` [Example P-5-P, pyridoxal-5′-phosphate]: in test [1], the plasma glucose levels entry is “significantly reduced” and the plasma insulin levels result is reported as “significantly increased”. For the same compound, in test [2], the plasma glucose levels entry was “significantly decreased” and the plasma insulin levels result was “significantly decreased”. For the same compound, the “rise in systolic blood pressure” value in test [2] (FIG. 5, tail cuff, compared to diabetic and tolbutamide treatment groups) was “significantly decreased”.

As for `CCCCNC(=O)NS(=O)(=O)c1ccc(C)cc1` [tolbutamide, reference compound], in test [2], the plasma glucose levels entry is “significantly decreased” and the plasma insulin levels result is recorded as “significantly decreased”.

Consider “Insulin: Humulin® N (insulin isophene, human biosynthetic; Eli Lilly and Co.)”, for which, in test [1], the plasma glucose levels result is given as “significantly reduced” and the plasma insulin levels result was “significantly increased”.
